Nine molecules from patent publication US11584744B2 (UNIVERSITY OF WASHINGTON, priority 2017, dated 2023) can be followed below.

In test [1] the test system is G. lamblia (ATCC GL50803). Description: G. lamblia growth inhibition. It counts as cell-based. As to conditions: Giardia duodenalis, read-out: (K) G. lamblia (ATCC GL50803) EC50.
The next test has as its target T1, MetRS (T. brucei) (Trypanosoma brucei brucei, UniProt Q38C91).
T1 sequence (Q38C91 1-773): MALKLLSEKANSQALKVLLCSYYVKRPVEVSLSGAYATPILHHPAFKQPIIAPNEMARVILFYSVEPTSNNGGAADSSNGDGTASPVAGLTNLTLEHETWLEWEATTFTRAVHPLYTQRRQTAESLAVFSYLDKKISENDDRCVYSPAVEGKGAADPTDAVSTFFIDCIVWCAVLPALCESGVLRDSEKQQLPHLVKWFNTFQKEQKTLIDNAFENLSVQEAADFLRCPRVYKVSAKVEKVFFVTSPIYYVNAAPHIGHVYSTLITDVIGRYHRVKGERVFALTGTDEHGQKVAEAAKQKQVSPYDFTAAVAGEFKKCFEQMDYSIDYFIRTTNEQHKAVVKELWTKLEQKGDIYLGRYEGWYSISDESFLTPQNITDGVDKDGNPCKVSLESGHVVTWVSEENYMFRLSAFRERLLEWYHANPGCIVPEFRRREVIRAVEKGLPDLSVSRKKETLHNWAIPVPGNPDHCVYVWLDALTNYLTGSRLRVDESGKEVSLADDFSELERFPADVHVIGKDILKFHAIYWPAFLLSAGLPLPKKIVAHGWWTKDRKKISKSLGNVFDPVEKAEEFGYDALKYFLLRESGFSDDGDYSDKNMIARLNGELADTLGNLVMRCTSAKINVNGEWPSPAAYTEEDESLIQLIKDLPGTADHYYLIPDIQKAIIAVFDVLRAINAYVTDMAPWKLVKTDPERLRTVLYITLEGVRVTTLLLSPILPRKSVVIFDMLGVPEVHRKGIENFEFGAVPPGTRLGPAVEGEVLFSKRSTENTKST
Description: MetRS (T. brucei) enzyme inhibition. It counts as biochemical.

A further test concerns C. parvum. The test can be described thus: C. parvum growth inhibition. It counts as cell-based, Cryptosporidium parvum. As to conditions: read-out: (J) C. parvum EC50.
In the next test the test system is T. cruzi. Description: T. cruzi growth inhibition. The following applies: read-out: (E) T. cruzi EC50. Format: cell-based, Trypanosoma cruzi.
The target in another test is MetRS (C. parvum) (Cryptosporidium parvum, UniProt Q5CVN0). The test can be described thus: MetRS (C. parvum) enzyme inhibition. It counts as biochemical. The following applies: read-out: (C) MetRS (C. parvum) IC50.
Chain of MetRS (C. parvum) (Q5CVN0 entry or part of it): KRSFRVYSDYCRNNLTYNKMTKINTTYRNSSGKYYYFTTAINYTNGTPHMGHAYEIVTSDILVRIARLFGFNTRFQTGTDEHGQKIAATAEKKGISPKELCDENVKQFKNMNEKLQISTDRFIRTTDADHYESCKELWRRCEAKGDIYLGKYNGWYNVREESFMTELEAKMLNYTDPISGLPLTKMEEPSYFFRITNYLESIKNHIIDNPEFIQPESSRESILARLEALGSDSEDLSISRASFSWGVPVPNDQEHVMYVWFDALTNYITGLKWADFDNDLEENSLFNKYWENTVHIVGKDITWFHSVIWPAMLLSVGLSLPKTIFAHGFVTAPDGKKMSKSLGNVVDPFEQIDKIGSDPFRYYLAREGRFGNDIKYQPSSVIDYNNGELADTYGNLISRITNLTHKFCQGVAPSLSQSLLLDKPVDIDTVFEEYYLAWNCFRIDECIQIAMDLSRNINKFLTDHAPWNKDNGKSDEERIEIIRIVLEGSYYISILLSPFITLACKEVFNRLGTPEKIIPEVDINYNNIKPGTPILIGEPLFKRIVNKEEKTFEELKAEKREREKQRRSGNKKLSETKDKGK
For test [2], the system named is S. aureus MSSA (ATCC 29213). The test can be described thus: MIC susceptibility testing. It counts as cell-based, Staphylococcus aureus. As to conditions: S. aureus ATCC 29213; for MIC: Staphylococcus aureus, read-out: (F) S. aureus (ATCC 29213) MIC.
Test [3] relates to S. aureus MRSA (ATCC 33591). The test can be described thus: MIC susceptibility testing. Format: cell-based, Staphylococcus aureus. The following applies: Staphylococcus aureus, MRSA ATCC33591; read-out: (G) MRSA (ATCC33591) MIC. Put shortly: (§1)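 CLSI broth microdilution with two-fold compound dilutions, in triplicate; cells added in medium at 1×10^6 CFUs/mL, DMSO ≤0.5%. Media: MHB for S. aureus, CA-MHB for E. coli and E. faecium, CA-MHB plus 3% laked horse blood for S. pyogenes (5% CO2).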

The target of test [4] is recombinant S. aureus MetRS enzyme (Staphylococcus aureus, UniProt A0A0H2XID2). The test can be described thus: Inhibition of SaMetRS, ATP depletion assay. It counts as biochemical. The following applies: read-out: (B) MetRS (S. aureus) IC50. Put shortly:
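IC50 values come from sigmoidal fits of percent inhibition, based on ATP left after 120 min as measured by Kinase-Glo. Substrates were 20 μM L-methionine and 150 nM ATP, added after compounds sat 15 min at room temperature with 25 nM His-tagged SaMetRS, bulk E. coli tRNA, pH 7.9 HEPES buffer and 2% DMSO.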

Another test relates to S. pyogenes (ATCC 19615). Description: MIC susceptibility testing. It counts as cell-based. As to conditions: Streptococcus pyogenes, ATCC19615, S. pyogenes ATCC 19615; read-out: (H) S. pyogenes (ATCC 19615) MIC. From the text: Media and culture conditions. Mueller Hinton broth (MHB), cation adjusted Mueller Hinton broth (CA-MHB), and Brain Heart Infusion broth (BHI) were purchased from Becton Dickinson (Franklin Lakes, N.J.). Tryptic soy agar (TSA) plates, TSA with 5% sheep blood plates, and CA-MHB with 3% laked horse blood were purchased from Remel (San Diego, Calif.). MHB was used to assay all Staphylococcus aureus strains. CA-MHB was used for Staphylococcus epidermidis, Enterococcus faecalis, Enterococcus faecium, Escherichia coli, and Pseudomonas aeruginosa. CA-MHB supplemented with 3% laked horse blood was used for Streptococcus pneumoniae and Streptococcus pyogenes. Staphylococcus, Enterococcus, Escherichia, and Pseudomonas strains were cultured at 37° C. with ambient air. Streptococcus strains were cultured in 37° C. with 5% CO2. Separate conditions for radiolabeled precursor uptake assays are described below.
Susceptibility testing: Minimum inhibitory concentration (MIC) determinations were performed in triplicate in 96-well round bottom microtiter plates (Corning, Corning N.Y.) as described by the Clinical and Laboratory Standards Institute (CLSI). Serial two-fold dilutions of compounds were added to plates in 50 μL volumes. An additional 50 μL of media containing bacterial cells (1×10^6 CFUs/mL) was then added to each well. Maximum DMSO concentrations were 0.5%. Plates were incubated at 37° C. for at least 18 h before reading the susceptibility result by optical absorbance (OD600) using a BioTek ELx800. The lowest concentration causing ≥90% growth inhibition compared to the untreated control was recorded as the MIC (and also corresponded to the visual MIC). MICs were measured at least twice and the higher value (if different) was recorded herein.

A further test deals with T. brucei. Description: T. brucei growth inhibition. It counts as cell-based, Trypanosoma brucei. The following applies: read-out: (D) T. brucei EC50.
The test system of test [5] is E. faecium VRE (ATCC 51559). Description: MIC susceptibility testing. It counts as cell-based, Enterococcus faecium. As to conditions: E. faecium ATCC 51559; for MIC: Enterococcus faecium, read-out: (I) E. faecium (ATCC 51559) MIC. In a few lines:
as §1

Converted amounts (≈) assume the structure as drawn. “And” between values parts separate entries of the source, which are not always exact repeats. Equal values may be shown once. Read-outs that look alike come from different tables or passages of the source.

Chain of recombinant S. aureus MetRS enzyme (A0A0H2XID2 2-657): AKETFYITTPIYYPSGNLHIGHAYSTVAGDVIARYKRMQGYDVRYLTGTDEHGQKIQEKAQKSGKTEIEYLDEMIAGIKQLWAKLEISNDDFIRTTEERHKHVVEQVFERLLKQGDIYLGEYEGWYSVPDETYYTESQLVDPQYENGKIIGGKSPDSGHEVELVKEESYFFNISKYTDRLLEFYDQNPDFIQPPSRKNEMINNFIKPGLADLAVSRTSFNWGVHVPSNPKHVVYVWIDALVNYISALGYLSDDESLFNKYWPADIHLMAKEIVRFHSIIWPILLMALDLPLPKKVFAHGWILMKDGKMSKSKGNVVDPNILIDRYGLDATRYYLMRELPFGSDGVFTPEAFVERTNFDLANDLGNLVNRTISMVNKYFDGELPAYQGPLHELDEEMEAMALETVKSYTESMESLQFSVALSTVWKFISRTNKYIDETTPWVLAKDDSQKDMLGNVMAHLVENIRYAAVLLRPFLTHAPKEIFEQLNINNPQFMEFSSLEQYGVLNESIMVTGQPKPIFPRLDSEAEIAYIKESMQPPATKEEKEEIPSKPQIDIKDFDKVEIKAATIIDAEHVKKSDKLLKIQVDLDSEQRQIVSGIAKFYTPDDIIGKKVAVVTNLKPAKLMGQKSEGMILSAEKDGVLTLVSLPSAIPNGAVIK

A word on the EC50: it is the concentration at which the effect is half-maximal. A word on the IC50: it is the concentration that inhibits the measured activity by half. The MIC is the lowest concentration that inhibits growth of the organism. As to `CC(C)n1c(Cc2ccc(Cl)cc2Cl)cn(Cc2nc3ccc(F)nc3[nH]2)c1=O` [Compound 2080, 4-[(2,4-dichlorophenyl)methyl]-1-({5-fluoro-1H-imidazo[4,5-b]pyridin-2-yl}methyl)-3-(propan-2-yl)-2,3-dihydro-1H-imidazol-2-one], the EC50 was 3850 nM in test [1], 610 nM with C. parvum (Cryptosporidium parvum), 434 nM in the test with C. parvum and 220 nM in the test with T. cruzi (Trypanosoma cruzi). In addition, the IC50 at MetRS (T. brucei) and on MetRS (C. parvum) was < 40 nM in each case. Further, the MIC in test [2] is 0.999 µg/mL (≈ 2.3 µM); in [3], 1.4 µg/mL (≈ 3.22 µM).
With `C[S+]([O-])c1nc(Cc2ccc(Cl)cc2Cl)cn1Cc1nc2nc(Cl)ccc2[nH]1` (centres unmarked) [Compound 2110, 1-({5-chloro-1H-imidazo[4,5-b]pyridin-2-yl}methyl)-4-[(2,4-dichlorophenyl)methyl]-2-methanesulfinyl-1H-imidazole], the IC50 against MetRS (T. brucei) was < 40 nM; in test [4], < 25 nM; at MetRS (C. parvum) it was 98.6 nM. The figures for the EC50 with C. parvum (Cryptosporidium parvum), with T. cruzi (Trypanosoma cruzi) and with T. brucei (Trypanosoma brucei) were 1270 nM, 178 nM and 19.4 nM, respectively. Besides, the MIC was > 4 µg/mL in the test on S. pyogenes (ATCC 19615), 0.795 µg/mL (≈ 1.75 µM) in test [2], 2.36 µg/mL (≈ 5.19 µM) in test [3] and 1.99 µg/mL (≈ 4.38 µM) in [5].
On to `C[S+]([O-])c1nc(Cc2ccc(Cl)cc2Cl)cn1Cc1nc2ccc(F)nc2[nH]1` (centres unmarked) [Compound 2120, 4-[(2,4-dichlorophenyl)methyl]-1-({5-fluoro-1H-imidazo[4,5-b]pyridin-2-yl}methyl)-2-methanesulfinyl-1H-imidazole], for which the IC50 was < 40 nM against MetRS (T. brucei), < 25 nM in test [4] and < 40 nM on MetRS (C. parvum). Also, the EC50 with C. parvum (Cryptosporidium parvum) came to 1230 nM; in the test with T. cruzi (Trypanosoma cruzi) it was 295 nM; with T. brucei (Trypanosoma brucei), 13.6 nM. For the same molecule, the values for the MIC (in the test with S. pyogenes (ATCC 19615); in test [2]; in test [5]) were > 4 µg/mL, 1.26 µg/mL (≈ 2.87 µM) and 0.336 µg/mL (≈ 0.767 µM), respectively.
On to `COc1ccc(-c2ccc(NC(C)=O)c3nc(Cc4nc5nc(Cl)ccc5[nH]4)cn23)c(Cl)c1` [Compound 2169, N-[2-({5-chloro-1H-imidazo[4,5-b]pyridin-2-yl}methyl)-5-(2-chloro-4-methoxyphenyl)imidazo[1,2-a]pyridin-8-yl]acetamide], for which the EC50 in [1] worked out at 10 nM; with C. parvum (Cryptosporidium parvum), 144 nM; with C. parvum, 195 nM. Besides, the IC50 at MetRS (T. brucei) and on MetRS (C. parvum) was < 40 nM throughout. Also, the MIC in test [2] came to 0.259 µg/mL (≈ 0.538 µM).
As to `COc1ccc(Cc2cn(Cc3nc4nc(Cl)ccc4[nH]3)c(=O)n2CC(C)(C)O)c(Cl)c1` [Compound 2207, 1-({5-chloro-1H-imidazo[4,5-b]pyridin-2-yl}methyl)-4-[(2-chloro-4-methoxyphenyl)methyl]-3-(2-hydroxy-2-methylpropyl)-2,3-dihydro-1H-imidazol-2-one], the EC50 in [1] was determined as 30 nM; in the test with C. parvum (Cryptosporidium parvum), 129 nM. Also, the IC50 on MetRS (T. brucei) and at MetRS (C. parvum) was < 40 nM in each case. Also, the “(F) S. aureus (ATCC 29213) MIC” value in test [2] was 0.424 µg/mL. The figures for the MIC in test [2] and in test [3] were 0.218 µg/mL (≈ 0.458 µM) and 0.334 µg/mL (≈ 0.701 µM), respectively.
As for `COc1cc(Cl)c(-c2cccc3c2CN(Cc2nc4nc(Cl)ccc4[nH]2)C3=O)cc1OC` [Compound 2231, 2-((5-chloro-1H-imidazo[4,5-b]pyridin-2-yl)methyl)-4-(2-chloro-4,5-dimethoxyphenyl)isoindolin-1-one], the EC50 was 10 nM in test [1], < 0.91 nM in the test on T. brucei (Trypanosoma brucei) and 0.66 nM in the test on T. brucei. For the same molecule, the IC50 at MetRS (C. parvum) is < 40 nM. Further, in test [3], the MIC is < 0.00781 µg/mL.
With `COc1ccc(-c2cccc3c2CN(Cc2nc4c(C#N)c(Cl)ccc4[nH]2)C3=O)c(Cl)c1` [Compound 2233, 5-chlor0-2-((4-(2-chloro-4-methoxyphenyl)-1-oxoisoindolin-2-yl)methyl)-1H-benzo[d]imidazole-4-carbonitrile], the EC50 in test [1] worked out at 20 nM; in the test on T. cruzi (Trypanosoma cruzi) it was 207 nM; in the test on T. brucei (Trypanosoma brucei), 23.3 nM; with T. brucei it was 27.8 nM. At MetRS (C. parvum), the IC50 was < 40 nM. Besides, the MIC was determined as 0.186 µg/mL (≈ 0.401 µM) in test [3] and 0.147 µg/mL (≈ 0.317 µM) in test [5].
With `COc1cc(Cl)c(Cc2cn(Cc3nc4nc(Cl)ccc4[nH]3)c(=O)n2CC(C)(C)O)cc1OC` [Compound 2240, 1-({5-chloro-1H-imidazo[4,5-b]pyridin-2-yl}methyl)-4-[(2-chloro-4,5-dimethoxyphenyl)methyl]-3-(2-hydroxy-2-methylpropyl)-2,3-dihydro-1H-imidazol-2-one], the EC50 in test [1] was 20 nM; in the test with T. cruzi (Trypanosoma cruzi), 5.7 nM; with T. cruzi it was 6.83 nM; in the test with T. brucei (Trypanosoma brucei), < 0.91 nM; with T. brucei, 0.68 nM. Further, the IC50 on MetRS (C. parvum) is < 40 nM. Also, the MIC in test [3] came to 0.0578 µg/mL (≈ 0.114 µM); in test [5], 0.0141 µg/mL (≈ 0.0278 µM). Moreover, the “(I) E. faecium (ATCC 51559) MIC” value in [5] was 0.0122 µg/mL.
`COc1ccc(-c2nccn3c(=O)n(Cc4nc5nc(Cl)ccc5[nH]4)cc23)c(Cl)c1` [Compound 2249, 2-({5-chloro-1H-imidazo[4,5-b]pyridin-2-yl}methyl)-8-(2-chloro-4-methoxyphenyl)-2H,3H-imidazo[1,5-a]pyrazin-3-one]: the EC50 in test [1] was 1200 nM; with C. parvum (Cryptosporidium parvum) it was 1070 nM; in the test on C. parvum, 1200 nM and 1140 nM and > 2000 nM; in the test with T. cruzi (Trypanosoma cruzi), 76.4 nM; in the test on T. cruzi it was 114 nM; in the test on T. brucei (Trypanosoma brucei), 30.9 nM. Besides, the EC50 with T. brucei turned out to be 31.6 nM. Moreover, the IC50 on MetRS (C. parvum) was determined as 122 nM. Besides, the “(F) S. aureus (ATCC 29213) MIC” value in [2] is 3.33, μg/ml and 3.16 μg/ml. Also, the MIC in test [2] is > 2 µg/mL.
